Active and inactive are the calls of the source. The rule behind the calls is not given here.
Columns and labels:
[1] = molecular target: T1, DNA topoisomerase 1 (Homo sapiens) (UniProt P11387); test: Inhibition of Top1 (unknown origin)-mediated pBR322 DNA cleavage using ethidium bromide staining at 200 uM after 15 mins by electrophoresis analysis
T1 sequence (whole entry): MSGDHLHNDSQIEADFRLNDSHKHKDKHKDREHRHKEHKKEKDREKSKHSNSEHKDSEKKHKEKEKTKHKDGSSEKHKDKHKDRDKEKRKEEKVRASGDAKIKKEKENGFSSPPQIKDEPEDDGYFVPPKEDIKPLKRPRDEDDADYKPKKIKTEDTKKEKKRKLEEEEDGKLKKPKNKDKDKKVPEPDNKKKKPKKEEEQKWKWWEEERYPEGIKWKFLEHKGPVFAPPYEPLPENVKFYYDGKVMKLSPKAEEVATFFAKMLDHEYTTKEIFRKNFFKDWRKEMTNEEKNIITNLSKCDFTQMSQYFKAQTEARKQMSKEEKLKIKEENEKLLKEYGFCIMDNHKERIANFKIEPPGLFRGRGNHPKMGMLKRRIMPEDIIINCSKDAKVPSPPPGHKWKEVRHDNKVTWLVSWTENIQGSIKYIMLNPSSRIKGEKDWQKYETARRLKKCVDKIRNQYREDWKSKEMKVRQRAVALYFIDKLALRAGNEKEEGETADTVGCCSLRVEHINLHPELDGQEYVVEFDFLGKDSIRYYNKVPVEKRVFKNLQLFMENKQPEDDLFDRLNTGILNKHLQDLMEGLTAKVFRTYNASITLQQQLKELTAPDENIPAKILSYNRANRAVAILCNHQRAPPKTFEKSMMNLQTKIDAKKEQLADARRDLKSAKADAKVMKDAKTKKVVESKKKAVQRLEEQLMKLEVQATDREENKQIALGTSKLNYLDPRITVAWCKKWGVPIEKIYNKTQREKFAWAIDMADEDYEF

[2] = molecular target: DNA topoisomerase 2-alpha (Homo sapiens) (UniProt P11388); test: Inhibition of Top2alpha (unknown origin)-mediated pBR322 DNA cleavage using ethidium bromide staining at 100 uM after 30 mins by electrophoresis analysis
DNA topoisomerase 2-alpha (Homo sapiens), sequence (P11388 whole entry): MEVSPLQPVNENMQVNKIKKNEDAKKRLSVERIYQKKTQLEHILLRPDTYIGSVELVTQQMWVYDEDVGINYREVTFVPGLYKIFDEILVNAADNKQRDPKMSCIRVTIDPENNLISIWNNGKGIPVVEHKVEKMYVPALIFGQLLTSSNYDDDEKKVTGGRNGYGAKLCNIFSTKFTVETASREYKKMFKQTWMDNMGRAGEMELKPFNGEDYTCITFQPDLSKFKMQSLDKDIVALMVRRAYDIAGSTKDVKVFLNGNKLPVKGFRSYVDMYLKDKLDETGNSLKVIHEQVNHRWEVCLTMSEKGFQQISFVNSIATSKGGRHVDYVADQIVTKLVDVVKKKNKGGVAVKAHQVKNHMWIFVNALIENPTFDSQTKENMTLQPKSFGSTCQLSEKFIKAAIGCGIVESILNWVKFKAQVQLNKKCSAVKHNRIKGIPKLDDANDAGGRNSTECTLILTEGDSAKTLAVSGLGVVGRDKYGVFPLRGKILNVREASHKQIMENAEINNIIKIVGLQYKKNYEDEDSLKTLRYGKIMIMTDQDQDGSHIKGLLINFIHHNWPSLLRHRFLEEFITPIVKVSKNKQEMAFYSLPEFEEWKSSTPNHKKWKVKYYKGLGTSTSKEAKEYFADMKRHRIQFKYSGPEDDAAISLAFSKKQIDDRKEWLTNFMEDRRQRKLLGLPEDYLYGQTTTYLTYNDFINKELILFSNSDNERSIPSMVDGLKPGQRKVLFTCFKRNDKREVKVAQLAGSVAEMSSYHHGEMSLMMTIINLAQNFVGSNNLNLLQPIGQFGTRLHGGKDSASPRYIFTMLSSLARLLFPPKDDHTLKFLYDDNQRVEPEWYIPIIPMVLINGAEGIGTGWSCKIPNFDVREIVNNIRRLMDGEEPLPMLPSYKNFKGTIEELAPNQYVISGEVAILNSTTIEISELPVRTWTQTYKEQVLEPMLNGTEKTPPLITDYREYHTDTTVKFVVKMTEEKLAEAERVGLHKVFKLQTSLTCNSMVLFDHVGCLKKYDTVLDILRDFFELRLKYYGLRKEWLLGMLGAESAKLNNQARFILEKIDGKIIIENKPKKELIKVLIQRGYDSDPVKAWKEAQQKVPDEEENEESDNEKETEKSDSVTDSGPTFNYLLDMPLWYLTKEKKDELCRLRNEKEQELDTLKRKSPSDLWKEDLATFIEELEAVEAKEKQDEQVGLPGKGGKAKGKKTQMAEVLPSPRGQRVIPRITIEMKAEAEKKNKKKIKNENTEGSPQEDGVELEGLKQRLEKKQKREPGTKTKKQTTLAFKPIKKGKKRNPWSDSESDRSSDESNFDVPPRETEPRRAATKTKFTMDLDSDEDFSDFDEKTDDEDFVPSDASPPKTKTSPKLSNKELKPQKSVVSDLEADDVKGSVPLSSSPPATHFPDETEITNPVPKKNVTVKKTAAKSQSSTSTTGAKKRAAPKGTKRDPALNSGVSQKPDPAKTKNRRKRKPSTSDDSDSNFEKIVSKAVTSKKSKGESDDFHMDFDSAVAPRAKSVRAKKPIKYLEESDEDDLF

[3] = system: A549; test: Cytotoxicity against human A549 cells after 72 hrs by MTT assay; type: functional, cell-based; conditions: A549, 72 h
[4] = system: HCT-116; test: Cytotoxicity against human HCT116 cells after 72 hrs by MTT assay; type: functional, cell-based; conditions: HCT-116, 72 h
[5] = system: MDA-MB-435; test: Cytotoxicity against human MDA-MB-435 cells after 72 hrs by MTT assay; type: functional, cell-based; conditions: MDA-MB-435, 72 h
[6] = molecular target: T1, DNA topoisomerase 1 (Homo sapiens); test: Inhibition of Top1 (unknown origin)-mediated pBR322 DNA cleavage using ethidium bromide staining at 100 uM after 15 mins by electrophoresis analysis
[7] = molecular target: T1, DNA topoisomerase 1 (Homo sapiens); test: Inhibition of Top1 (unknown origin)-mediated pBR322 DNA cleavage using ethidium bromide staining at 50 uM after 15 mins by electrophoresis analysis

Structure (SMILES) | inhibition [1] | inhibition [2] | IC50 [3] [µM] | IC50 [4] [µM] | IC50 [5] [µM] | inhibition [6] | inhibition [7]
O=C1c2ccccc2OC2c3[nH]c4ccc(O)cc4c3CCN12 (stereo unspecified) | Active | inactive | 4 | 2.3 | 1.4 |  | 
O=C1c2cccnc2SC2c3[nH]c4ccccc4c3CCN12 (stereo unspecified) |  |  | > 200 | > 200 | > 200 | Active | Active
O=C1c2ccccc2S(=O)(=O)C2c3[nH]c4ccc(O)cc4c3CCN12 (stereo unspecified) |  | inactive | > 200 | 46 | > 200 |  | 
O=C1c2cc(Cl)ccc2SC2c3[nH]c4ccccc4c3CCN12 (stereo unspecified) |  |  | 2.1 | 29.1 | 38.8 | Active | Active
O=C1c2ccccc2OC2c3[nH]c4ccccc4c3CCN12 (stereo unspecified) |  |  | 2.4 | 3.1 | 3 |  | 
CCNc1ccc2c(c1)C(=O)N1CCc3c([nH]c4ccccc34)C1O2 (stereo unspecified) |  |  | > 200 | 39.4 | > 200 |  | 
COc1ccc2c(c1)C(=O)N1CCc3c([nH]c4ccc(OC)cc34)C1O2 (stereo unspecified) |  |  | 9.5 | 23.7 | 10.1 |  | 
COc1ccc2[nH]c3c(c2c1)CCN1C(=O)c2c(ccc4ccccc24)OC31 (stereo unspecified) |  |  | > 200 | > 200 | 31 |  | 
COc1ccc2[nH]c3c(c2c1)CCN1C(=O)c2ccc(F)cc2OC31 (stereo unspecified) |  |  | > 200 | 37.1 | 157 |  | 
COc1ccc2c(c1)OC1c3[nH]c4ccc(OC)cc4c3CCN1C2=O (stereo unspecified) |  |  | > 200 | > 200 | > 200 |  | 
CN1c2ccoc2C(=O)N2CCc3c([nH]c4ccccc34)C21 (stereo unspecified) |  |  | > 200 | 178 | 182 |  | 
O=C1c2cc(F)ccc2OC2c3[nH]c4ccccc4c3CCN12 (stereo unspecified) |  |  | 6.6 | 5.8 | 46.1 |  | 
COc1ccc2[nH]c3c(c2c1)CCN1C(=O)c2ccc4ccccc4c2OC31 (stereo unspecified) |  |  | > 200 | > 200 | > 200 |  | 
COc1ccc2[nH]c3c(c2c1)CCN1C(=O)c2ccc(C)cc2OC31 (stereo unspecified) |  |  | > 200 | > 200 | 198 |  | 
COc1ccc2[nH]c3c(c2c1)CCN1C(=O)c2cc(F)ccc2SC31 (stereo unspecified) |  |  | 1.2 | 6.5 | 3.9 | Active | Active
O=C1c2ccccc2S(=O)(=O)C2c3[nH]c4ccccc4c3CCN12 (stereo unspecified) |  |  | > 200 | > 200 | > 200 | Active | Active
CN1c2ccccc2C(=O)N2CCCc3c([nH]c4ccc(O)cc34)C21 (stereo unspecified) |  |  | 32.4 | 59.8 | 69.2 |  | 
COc1ccc2[nH]c3c(c2c1)CCN1C(=O)c2ccccc2OC31 (stereo unspecified) |  |  | > 200 | > 200 | > 200 |  | 
O=C1c2ccc(F)cc2OC2c3[nH]c4ccccc4c3CCN12 (stereo unspecified) |  |  | 95 | 6.7 | 171 |  | 
COc1ccc2[nH]c3c(c2c1)CCN1C(=O)c2cc(Br)ccc2SC31 (stereo unspecified) |  |  | 8.2 | 2.7 | 84.7 | Active | Active
CC(=O)Nc1ccc2c(c1)C(=O)N1CCc3c([nH]c4ccccc34)C1O2 (stereo unspecified) |  |  | 20.1 | 5.8 | 19.6 |  | 
COc1cccc2c1OC1c3[nH]c4ccccc4c3CCN1C2=O (stereo unspecified) |  |  | 26.8 | 2.21 | 16.9 |  | 
O=C1c2ccc(C(F)(F)F)cc2OC2c3[nH]c4ccc(O)cc4c3CCN12 (stereo unspecified) |  |  | 14.7 | 10.9 | 10.5 |  | 
CN1c2ccn(C)c2C(=O)N2CCc3c([nH]c4ccccc34)C21 (stereo unspecified) |  |  | > 200 | 76.5 | 207 |  | 
COc1ccc2[nH]c3c(c2c1)CCN1C(=O)c2cc(Cl)ccc2SC31 (stereo unspecified) |  |  | 2.3 | 2.7 | 44.1 | Active | Active
O=C1c2cc([N+](=O)[O-])ccc2OC2c3[nH]c4ccccc4c3CCN12 (stereo unspecified) |  |  | > 200 | > 200 | > 200 |  | 
Cc1cccc2c1C(=O)N1CCc3c([nH]c4ccc(O)cc34)C1O2 (stereo unspecified) |  |  | 1.8 | < 0.003 | < 0.003 |  | 

— ChEMBL document CHEMBL3600310 (J Med Chem, 2015)
